We go through 2 compounds from article PMC6788984, “High-potency ligands for DREADD imaging and activation in rodents and monkeys” (Nature Communications, 2019).

Data set [1] addresses T1, hM4Di (Homo sapiens, UniProt P08173, A203G/Y113C).
T1 sequence (P08173 1-479 Y113C/A203G): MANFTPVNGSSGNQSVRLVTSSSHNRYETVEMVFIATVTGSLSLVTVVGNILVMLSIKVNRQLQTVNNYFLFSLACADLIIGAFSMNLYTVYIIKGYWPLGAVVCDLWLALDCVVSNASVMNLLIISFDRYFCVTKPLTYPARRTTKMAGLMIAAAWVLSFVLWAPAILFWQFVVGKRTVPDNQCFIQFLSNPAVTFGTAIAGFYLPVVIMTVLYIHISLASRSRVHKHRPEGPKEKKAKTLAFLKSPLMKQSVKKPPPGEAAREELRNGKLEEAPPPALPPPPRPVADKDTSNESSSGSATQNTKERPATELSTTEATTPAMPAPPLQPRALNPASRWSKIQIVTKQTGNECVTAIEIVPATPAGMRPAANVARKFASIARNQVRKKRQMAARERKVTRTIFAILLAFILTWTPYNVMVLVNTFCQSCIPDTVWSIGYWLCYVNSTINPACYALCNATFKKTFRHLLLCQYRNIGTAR
Kind of data set: [18F]JHU37107 PET in a monkey expressing hM4Di in the right amygdala. The data set is classed as in vivo, rhesus monkey (Macaca mulatta). Also on record: expressed in transfected cells; host or cells: rhesus monkey (Macaca mulatta) right amygdala, lentivirus-transduced neurons. The protocol:
Lentivirus expressing an hM4Di-CFP fusion protein under an hSyn promoter[11] with a titer of >10^9 infectious particles was loaded into a 100 µL glass syringe (Hamilton Co., MA). The 31-gauge needle of the syringe was sheathed with a silica capillary (450 µm OD) to create a step 1 mm from the base of the aperture. The syringe was mounted in a Nanomite pump (Harvard Apparatus, Cambridge, MA). The needle was lowered through the incision in the dura mater to each of the pre-calculated target sites and 10 or 20 µL was infused at a rate of 1 µL min^−1. Each monkey received a total of between 10 and 12 injections (for a total injection volume of 120–240 µL). Post-infusion, the needle was left in situ for 10 min after each injection to allow pressure from the infusate to dissipate. The needle was then slowly removed. At the completion of the injection series the soft tissues were sutured together in anatomical layers.
(§1) [^18F]JHU37107 was prepared via the no-carrier-added ^18F-fluorination using an FDG Nuclear Interface module (Muenster, Germany). Briefly, 4 mg precursor (8-chloro-11-(4-ethylpiperazin-1-yl)-5H-dibenzo[b,e][1,4]diazepin-2-ol) and 8 mg tris(acetonitrile)cyclopentadienylruthenium(II)hexafluorophosphate (STREM, Boston, MA) were dissolved in ethanol (0.3 mL), the solution was heated at 85 °C for 25 min and evaporated to dryness under a stream of argon gas. The residue was dissolved in DMSO (0.5 mL) and acetonitrile (0.5 mL) and the solution was added to a dry complex of [^18F]fluoride and 9 mg 1,3-bis(2,6-di-i-propylphenyl)-2-chloroimidazolium chloride (STREM). The reaction mixture was heated at 130 °C for 30 min, diluted with mixture of 0.5 mL acetonitrile, 0.5 mL water and 0.03 mL TFA and injected onto a semi-preparative HPLC column (Luna C18, 10 micron, 10 mm × 250 mm) and eluted with 23:77 (v:v) acetonitrile:water (0.1% trifluoroacetic acid) at a flow rate of 10 mL min^−1. The radioactive peak corresponding to [^18F]JHU37107 (tR = 9.9 min) was collected in a reservoir containing 50 mL of water and 3 mL aq 8.4% NaHCO3 solution. The diluted product was loaded onto a solid phase extraction cartridge (Waters Oasis HLB plus light) and rinsed with 10 mL sterile saline. The product was eluted with 1000 µL of ethanol through a sterile 0.2 μm filter into a sterile, pyrogen-free vial and 10 mL saline was added through the same filter. The final product [^18F]JHU37107 was then analyzed by analytical HPLC (Luna C18, 10 micron, 4.6 mm × 250 mm; mobile phase 23:77 (v:v) acetonitrile:water (0.1% trifluoroacetic acid), flow rate of 3 mL min^−1; tR = 6.4 min) using a UV detector at 254 nm to determine the radiochemical purity (>95%) and specific radioactivity (152–188 GBq μmol^−1 (4100–5070 mCi μmol^−1)) at the time synthesis ended.
All macaque studies were acquired dynamically on the Focus 220 PET scanner (Siemens Medical Solutions, Knoxville, TN). The Focus 220 is a dedicated pre-clinical scanner with a transaxial FOV of 19 cm and an axial FOV of 7.5 cm. Image resolution is <2 mm within the central 5 cm FOV.
After initial evaluation the monkey was sedated with ketamine (10 mg kg^−1) followed by ketoprofen (as an analgesic) and glycopyrrolate (for salvia reduction), all weight dependent IM injections. The monkey would then be placed in the supine position, intubated with a tracheal tube. […] The monkey was always monitored while anesthetized. […]

Data set [2] concerns the target T1, hM4Di. Kind of data set: [18F]JHU37107 PET in rats expressing hM3Dq or hM4Di in the right motor cortex. It counts as in vivo, rat. The note with it: unilateral hM4Di in right motor cortex. Also on record: expressed in transfected cells; host or cells: rat right motor cortex, AAV-transduced neurons. How it is done: as §1, with “The radioactive peak corresponding to [^18F]JHU37107 (tR = 9.9 min) was collected in a reservoir containing 50 mL of water and 3 mL aq 8.4% NaHCO3 solution. The diluted product was loaded onto a solid phase extraction cartridge (Waters Oasis HLB plus light) and rinsed with 10 mL sterile saline. The product was eluted with 1000 µL of ethanol through a sterile 0.2 μm filter into a sterile, pyrogen-free vial and 10 mL saline was added through the same filter.” left out, “ended. […]” for “ended.”

The nature of data set [3]: Radiometabolite analysis of [18F]JHU37107 in monkey plasma / whole blood (radio-HPLC). It counts as in vivo, rhesus monkey (Macaca mulatta). The protocol: To determine the arterial input function for the radiotracers injected in rhesus monkeys radioligand concentrations in the arterial plasma were corrected by the unchanged parent fraction. […] Blood samples were immediately sampled for gamma counting, and plasma harvested by centrifugation for gamma counting and radio-HPLC analysis. The unchanged plasma parent fractions were determined by radio-HPLC on an X-terra® C18 column (10 µm, 7.8 mm × 300 mm, Waters Corp., Milford, MA), and eluted with MeOH:H2O:Et3N (80:20:0.1; by volume) at an isocratic flow rate of 4.0 mL min^−1. Eluates were monitored with an in-line flow-through NaI(Tl) scintillation detector (Bioscan). Data were stored and analyzed on a PC using the software “Bio-ChromeLite”. The collection of data for each radiochromatogram was decay corrected according to its respective HPLC injection time. Plasma free fraction was determined according to our previous methods.

The next data set addresses T2, P-gp (Homo sapiens, UniProt P08183).
T2 construct: host or cells: Caco-2
Nature of the data set: P-glycoprotein (P-gp) substrate assay in Caco-2 cells with and without verapamil. The data set is classed as in vitro ADME. The note with it: Caco-2, efflux ratio with/without verapamil. How it is done:
These experiments were performed by an outside vendor (Eurofins, France). C21 was tested in P-gp substrate assessment assays at 10 µM. The A to B and B to A permeability was measured in Caco-2 cells in the presence and absence of verapamil, a P-gp inhibitor. Efflux ratios (E) were calculated based on the apparent B–A and A–B permeability with and without verapamil. In each experiment, the respective reference compound was tested concurrently with the test compound to assess the assay reliability. Fluorescein was used as the cell monolayer integrity marker. Fluorescein permeability assessment (in the A–B direction at pH 7.4 on both sides) was performed after the permeability assay for the test compound.
(Caco-2 cells form a polarised layer with tight junctions and transporters.)

The target in data set [4] is T1, hM4Di. Kind of data set: [35S]GTPgammaS autoradiography in rat brain sections expressing hM4Di. It counts as biochemical. Also on record: expressed in transfected cells; host or cells: rat right motor cortex, AAV-transduced neurons. The following applies: 10 nM. (GTPγS resists hydrolysis and so accumulates on activated G proteins.)
Method: Sections were encircled with a hydrophobic membrane using a PAP pen (Sigma-Aldrich). Preincubation buffer was pipetted onto each slide and allowed to incubate for 20 min (50 mM Tris-HCl, 1 mM EDTA, 5 mM MgCl2 and 100 mM NaCl). The preincubation buffer was removed via aspiration and each slide was loaded with GDP in the presence of DPCPX and allowed to incubate of 60 min (Preincubation buffer, 2 mM GDP, 1 μM DPCPX, Millipore water). […] The [^35S]GTPγS cocktail was removed via aspiration and slides were washed in ice-cold washing buffer (50 mM Tris-HCl, 5 mM MgCl2, pH 7.4) for 5 min (2×) followed by a 30 s dip in ice-cold deionized water. Hydrophobic membrane was removed with a cotton swab and xylene and slides were placed into a […] covered by a BAS-SR2040 phosphor screen (FujiFilm; GE Healthcare). The slides were exposed to the phosphor screen for 3-5 days and imaged using a phosphor imager (Typhoon FLA 7000; GE Healthcare).
In another data set the test system is WT mice. Kind of data set: [18F]FDG PET metabolic mapping in WT mice. The data set is classed as in vivo, mouse. The following applies: 0.1 mg/kg. How it is done: Mice (D1-hM3Dq, D1-hM4Di or WT littermates, see above) were habituated to experimenter handling and fasted 16 h before the experiment. On the day of the experiment, mice received an IP injection of vehicle (1 ml kg^−1) and were placed back into their home cages. Ten minutes later, mice were injected (IP) with 11 MBq of 2-deoxy-2-[^18F]fluoro-D-glucose (FDG, Cardinal Health) and placed back into their home cages. After 30 min, mice were anesthetized with 1.5% isoflurane, placed on a custom-made bed of a nanoScan small animal PET/CT scanner (Mediso Medical Imaging Systems) and scanned for 20 min on a static acquisition protocol, followed by a CT scan. […] Voxel-based repeated measures with Student’s t test comparing baseline to drug were performed, and the resulting parametric images were filtered for statistically significant (p < 0.05) clusters larger than 100 contiguous voxels. All statistical parametric mapping analyses were performed using Matlab R2016 (Mathworks) and SPM12 (University College London).

The subject of data set [5] is mu, kappa, and delta opioid receptors. Nature of the data set: Binding and enzyme target profile screen (Eurofins). The note with it: competitive binding screen, 10 uM. How it is done:
These experiments were performed by an outside vendor (Eurofins, France). […] In each experiment, the respective reference compound was tested concurrently with the test compound to assess the assay reliability. […] Following incubation, the samples were filtered rapidly under vacuum through glass fiber filters presoaked in a buffer and rinsed several times with an ice-cold buffer using a 48-sample or 96-sample cell harvester. The filters were counted for radioactivity in a scintillation counter using a scintillation cocktail.

Data set [6] has as its target T1, hM4Di. Nature of the data set: Autoradiography: direct binding of [3H]clozapine, [3H]C21, [3H]C13 in monkey brain sections expressing hM4Di. Also on record: expressed in transfected cells; host or cells: rhesus monkey (Macaca mulatta) right amygdala, lentivirus-transduced neurons; species or system rhesus monkey (Macaca mulatta); unit not given here. The note with it: Fig. 1 panel H; [3H]-labelled ligand; individual values; listed as CLZ. The text has this:
Flash frozen tissue (both rodents and the monkey) was sectioned (20 µm) on a cryostat (Leica, Germany) and thaw mounted onto ethanol-washed glass slides. […] Slides were air dried and placed in a Hypercassette™ (Amersham Biosciences) and covered with a BAS-TR2025 Storage Phosphor Screen (FujiFilm, Japan). The slides were exposed to the screen for 5–7 days and imaged using a phosphor imager (Typhoon FLA 7000; GE Healthcare).

Data set [7] has as its system untransfected HEK-293 cells. Nature of the data set: Negative controls of the functional assays: HEK-293 cells without DREADD. The data set is classed as cell-based, human. The protocol:
BRET assays were performed to detect receptor ligand-induced Gαo1 protein activation. […] Forty-eight hour after transfection cells were harvested, washed and resuspended in phosphate-buffered saline (PBS). Approximately, 200,000 cells/well were distributed in 96-well plates, and 5 µM Coelenterazine H (substrate for luciferase) was added to each well. Five minutes after addition of Coelenterazine H, ligands were added to each well. The fluorescence of the acceptor was quantified (excitation at 500 nm and emission at 540 nm for 1-s recordings) in a PheraStar FSX plate reader (BMG Labtech) to confirm the constant expression levels across experiments. In parallel, the BRET signal from the same batch of cells was determined as the ratio of the light emitted by mVenus (510–540 nm) over that emitted by RLuc (485 nm). Results were calculated for the BRET change (BRET ratio for the corresponding drug minus BRET ratio in the absence of the drug) 5 min after the addition of the ligands.
Intracellular Ca^2+ concentration was monitored using the fluorescent Ca^2+ biosensor GCaMP6f. HEK-293 cells were transfected with 7 µg/dish of the cDNA encoding for hM3Dq (Addgene #89149) or hM4Di (Addgene #89150) and 7 µg/dish of GCaMP6. Forty-eight hours after transfection, cells were harvested, washed, resuspended in Mg^2+-free Locke’s buffer pH 7.4 (154 mM NaCl, 5.6 mM KCl, 3.6 mM NaHCO3, 2.3 mM CaCl2, and 5 mM HEPES) containing 5.6 mM of glucose and approximately 200,000 cells/well were distributed in black 96-well plates. Increasing concentrations of the indicated compound were added to the cells and fluorescence intensity (excitation at 480 nm, emission at 530 nm) was measured at 18-s intervals during 250 s using a PHERAstar FSX (BMG Labtech). The net change in intracellular Ca^2+ concentration was expressed as F − F0 where F is the fluorescence at a given concentration of ligand and F0 is the average of the baseline values (fluorescence values of buffer-treated wells).

Where “and” joins values, the source holds several entries; their conditions need not be identical. Equal values may be shown once.

T2 sequence (P08183 whole entry): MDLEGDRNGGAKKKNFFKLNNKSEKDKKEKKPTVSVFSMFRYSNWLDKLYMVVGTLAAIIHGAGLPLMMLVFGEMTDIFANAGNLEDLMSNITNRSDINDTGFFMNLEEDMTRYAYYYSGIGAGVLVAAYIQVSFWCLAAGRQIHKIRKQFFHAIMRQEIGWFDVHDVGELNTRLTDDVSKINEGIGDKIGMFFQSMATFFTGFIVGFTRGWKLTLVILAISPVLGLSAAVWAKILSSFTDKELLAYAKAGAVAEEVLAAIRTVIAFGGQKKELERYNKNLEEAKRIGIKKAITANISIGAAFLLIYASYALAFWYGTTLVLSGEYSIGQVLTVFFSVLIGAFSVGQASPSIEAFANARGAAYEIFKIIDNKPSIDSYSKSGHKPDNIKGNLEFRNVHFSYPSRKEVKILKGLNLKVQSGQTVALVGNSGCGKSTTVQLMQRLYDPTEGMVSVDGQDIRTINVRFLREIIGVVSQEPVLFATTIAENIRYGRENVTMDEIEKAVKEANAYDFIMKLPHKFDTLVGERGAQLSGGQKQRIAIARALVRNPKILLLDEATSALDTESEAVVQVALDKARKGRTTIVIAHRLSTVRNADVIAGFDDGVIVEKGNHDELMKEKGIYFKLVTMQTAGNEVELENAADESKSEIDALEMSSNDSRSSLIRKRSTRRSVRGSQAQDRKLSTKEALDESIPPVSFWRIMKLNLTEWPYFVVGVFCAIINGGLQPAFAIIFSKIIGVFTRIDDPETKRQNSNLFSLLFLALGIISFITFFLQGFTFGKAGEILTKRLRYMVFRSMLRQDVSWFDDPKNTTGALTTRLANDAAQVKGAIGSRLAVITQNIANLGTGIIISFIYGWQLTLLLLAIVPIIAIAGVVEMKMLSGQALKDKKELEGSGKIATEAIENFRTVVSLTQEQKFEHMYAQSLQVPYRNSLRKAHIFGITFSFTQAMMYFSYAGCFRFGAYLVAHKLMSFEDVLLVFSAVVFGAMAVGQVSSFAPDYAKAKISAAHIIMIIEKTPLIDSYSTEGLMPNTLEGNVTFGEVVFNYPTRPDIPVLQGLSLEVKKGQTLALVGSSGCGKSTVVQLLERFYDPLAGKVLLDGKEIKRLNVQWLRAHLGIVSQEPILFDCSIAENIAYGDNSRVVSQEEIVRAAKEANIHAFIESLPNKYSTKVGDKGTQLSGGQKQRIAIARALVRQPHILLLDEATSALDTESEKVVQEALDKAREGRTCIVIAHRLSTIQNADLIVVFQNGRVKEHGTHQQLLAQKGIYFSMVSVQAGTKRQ

As for `CCN1CCN(C2=Nc3cc(Cl)ccc3Nc3ccc([18F])cc32)CC1` [[^18F]JHU37107], on hM4Di [1], the pharmacokinetic properties entry is “favorable pharmacokinetic properties”. Also, the “PET labelling of hM4Di” value on hM4Di [1] (hM4Di in right amygdala) is recorded as “able to directly label hM4Di receptors”. Also, the “PET visualization of hM4Di” value at hM4Di [2] is “permitted hM4Di visualization in both the AAV injection site as well as at known proximal and distal anatomical projection sites”. For the same compound, the “parent radioactivity composition of plasma” value in data set [3] (in vitro monkey whole blood, 30 min incubation at room temperature) is 49.7%; in [3] (monkey plasma, 30 min after IV administration) it was 56%; in [3] (monkey plasma, 180 min after IV administration), 24.2%.

Take `CN1CCN(C2=Nc3cc(Cl)ccc3Nc3ccccc32)CC1` [clozapine]: on P-gp, the P-gp substrate entry is “none of these compounds is a substrate for P-gp”. Also, at hM4Di [4], the “hM4Di activation measured as [35S]GTPgammaS binding” value is “induces significantly greater hM4Di activation”. For the same compound, in the data set with WT mice, the “brain metabolic activity ([18F]FDG)” value was “did not produce any significant changes in brain glucose metabolism”. Further, the “brain metabolic activity ([18F]FDG)” value in the data set on WT mice (listed as CLZ) is “did not show any significant changes in brain metabolic activity”. For the same compound, the “binding to opioid receptors” value in data set [5] was “does not”. In addition, on hM4Di [6], the “tritiated ligand binding in brain tissue, CPu” value was 109.018 and 115.173 and 108.688 and 86.4656 and 88.6824 and 91.973; the “tritiated ligand binding in brain tissue, CTX” value was 88.2005 and 122.029 and 119.221 and 97.205 and 89.8389 and 100.22; the “tritiated ligand binding in brain tissue, hM4Di” value is 176.387 and 144.183 and 141.333 and 201.955 and 168.154 and 164.257. Further, in data set [7], the “functional response in HEK-293 cells lacking DREADDs” value is listed as “Neither clozapine nor C21 produced detectable functional responses”. Moreover, in data set [7] (HEK-293 cells), the “functional response, BRET (Go-alpha-Rluc8, beta1, gamma2-mVenus), no DREADD” value is on record as “did not show any functional response” and the “functional response, GCaMP6f, no DREADD” value was “did not show any functional response”.
